Measured values as given in the supplement of paper PMC10307832.

What was measured:
Assay in all cases: relative viability (nuclei count vs DMSO), 5 days (fraction); higher = more cells survive
[1] = compound: COc1cc2nccc(Oc3ccc(NC(=O)C4(C(=O)Nc5ccc(F)cc5)CC4)cc3)c2cc1OC [Cabozantinib] + O=C(CCCCCCC(=O)Nc1ccccc1)NO [Vorinostat] (partner 1 µM)
Method in brief: (§1)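 Relative viability is defined as nuclei in treated wells over nuclei in vehicle wells. Duplicate plates were run and medians reported. Lung cancer cell lines in 1536-well plates were dosed by pin tool one day after seeding, with one drug or with a fixed anchor-drug dose plus five library-drug doses (not always all listed) in √10 steps, and nuclei were counted after 5 days.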

[2] = compound: COc1cc2nccc(Oc3ccc(NC(=O)C4(C(=O)Nc5ccc(F)cc5)CC4)cc3)c2cc1OC [Cabozantinib] + C[C@@H](Oc1cc(-c2cnn(C3CCNCC3)c2)cnc1N)c1c(Cl)ccc(F)c1Cl [Crizotinib] (partner 1 µM)
Method in brief: as §1

[3] = compound: COc1cc2nccc(Oc3ccc(NC(=O)C4(C(=O)Nc5ccc(F)cc5)CC4)cc3)c2cc1OC [Cabozantinib] + Nc1ncn([C@H]2C[C@H](O)[C@@H](CO)O2)c(=O)n1 [Decitabine] (partner 2 µM)
Method in brief: as §1

Zosuquidar + Vorinostat = compound: O[C@@H](COc1cccc2ncccc12)CN1CCN([C@@H]2c3ccccc3[C@@H]3[C@H](c4ccccc42)C3(F)F)CC1 [Zosuquidar] + O=C(CCCCCCC(=O)Nc1ccccc1)NO [Vorinostat] (partner 1 µM)
Method in brief: as §1

| Cell Line | relative viability ([1]; first compound 0.02 µM) | relative viability ([1]; first compound 0.06325 µM) | relative viability ([1]; first compound 0.2 µM) | relative viability ([1]; first compound 0.6325 µM) | relative viability ([1]; first compound 2 µM) | relative viability ([2]; first compound 0.02 µM) | relative viability ([2]; first compound 0.06325 µM) | relative viability ([2]; first compound 0.2 µM) | relative viability ([2]; first compound 0.6325 µM) | relative viability ([2]; first compound 2 µM) | relative viability ([3]; first compound 0.02 µM) | relative viability ([3]; first compound 0.06325 µM) | relative viability ([3]; first compound 0.2 µM) | relative viability ([3]; first compound 0.6325 µM) | relative viability ([3]; first compound 2 µM) | relative viability (Zosuquidar + Vorinostat; first compound 0.01 µM) | relative viability (Zosuquidar + Vorinostat; first compound 0.03162 µM) | relative viability (Zosuquidar + Vorinostat; first compound 0.1 µM) | relative viability (Zosuquidar + Vorinostat; first compound 0.3162 µM) | relative viability (Zosuquidar + Vorinostat; first compound 1 µM) |
| --- | --- | --- | --- | --- | --- | --- | --- | --- | --- | --- | --- | --- | --- | --- | --- | --- | --- | --- | --- | --- |
| NCI-H1734 | 0.703 | 1.01 | 0.847 | 0.886 | 0.792 | 0.809 | 0.761 | 0.687 | 0.73 | 0.635 | 0.545 | 0.53 | 0.523 | 0.508 | 0.53 | 0.764 | 0.832 | 0.883 | 0.839 | 0.887 |
| NCI-H520 | 0.719 | 0.64 | 0.715 | 0.598 | 0.688 | 1.03 | 0.843 | 0.758 | 0.644 | 0.596 | 0.525 | 0.602 | 0.519 | 0.547 | 0.504 | 0.639 | 0.51 | 0.71 | 0.664 | 0.835 |
| PC-14 | 0.691 | 0.956 |  | 0.692 | 0.748 | 0.983 | 0.911 |  | 0.894 | 0.788 | 0.237 | 0.203 |  | 0.219 | 0.249 | 0.826 | 0.673 | 0.721 | 0.831 | 0.761 |
| NCI-H2347 | 0.525 | 0.525 | 0.627 | 0.469 | 0.391 | 0.761 | 0.771 | 0.46 | 0.786 | 0.584 | 0.66 | 0.667 | 0.601 | 0.609 | 0.516 | 0.531 | 0.713 | 0.499 | 0.615 | 0.56 |
| NCI-H650 | 0.412 | 0.489 | 0.458 | 0.721 | 0.414 | 0.857 | 0.692 | 0.836 | 0.792 | 0.757 | 0.315 | 0.372 | 0.45 | 0.338 | 0.304 | 0.452 | 0.414 | 0.397 | 0.577 | 0.435 |
| NCI-H596 | 0.628 | 0.812 | 0.677 | 1.5 | 0.6 | 1.06 | 1.06 | 0.87 | 1.01 | 0.888 | 1.06 | 1.39 | 1.07 | 1.01 | 0.98 | 0.555 | 0.637 | 0.709 | 0.761 | 0.661 |
